Results as given in BindingDB's records for doi:10.1002/cbic.201600267 (Fairfield University, 2016).

Target: Beta-galactosidase (Escherichia coli (strain K12), UniProt P00722)
Test: beta-Galactosidase Assay
Details: 30 °C
Description: Enzymatic activity of beta-galactosidase from Escherichia coli (1.2 x 10^-10 M) was measured using the colorimetric substrate ortho-nitrophenyl-b-galactoside ([ONPG]: 2500, 2000, 1500, 1000, 500, 250, 125 uM) in Z-Buffer (100 mM sodium phosphate at pH = 7, 10 mM KCl, 1 mM MgSO4) to which was added fresh 50 mM beta-mercaptoethanol at 30 °C. In a 96-well plate were combined a 5x stock solution of Z-buffer (containing 250 mM beta-mercaptoethanol) and 5x stock solutions of ONPG. Samples were adjusted to a final volume of 180 uL with water. Samples were equilibrated at 30 °C for 5 minutes on a Synergy H1 microplate reader. A 10x stock solution of enzyme (20 uL) was then injected into each well and the production of 2-nitrophenol was quantified at 410 nm over a period of 10 minutes.

Beta-galactosidase, sequence (P00722 whole entry): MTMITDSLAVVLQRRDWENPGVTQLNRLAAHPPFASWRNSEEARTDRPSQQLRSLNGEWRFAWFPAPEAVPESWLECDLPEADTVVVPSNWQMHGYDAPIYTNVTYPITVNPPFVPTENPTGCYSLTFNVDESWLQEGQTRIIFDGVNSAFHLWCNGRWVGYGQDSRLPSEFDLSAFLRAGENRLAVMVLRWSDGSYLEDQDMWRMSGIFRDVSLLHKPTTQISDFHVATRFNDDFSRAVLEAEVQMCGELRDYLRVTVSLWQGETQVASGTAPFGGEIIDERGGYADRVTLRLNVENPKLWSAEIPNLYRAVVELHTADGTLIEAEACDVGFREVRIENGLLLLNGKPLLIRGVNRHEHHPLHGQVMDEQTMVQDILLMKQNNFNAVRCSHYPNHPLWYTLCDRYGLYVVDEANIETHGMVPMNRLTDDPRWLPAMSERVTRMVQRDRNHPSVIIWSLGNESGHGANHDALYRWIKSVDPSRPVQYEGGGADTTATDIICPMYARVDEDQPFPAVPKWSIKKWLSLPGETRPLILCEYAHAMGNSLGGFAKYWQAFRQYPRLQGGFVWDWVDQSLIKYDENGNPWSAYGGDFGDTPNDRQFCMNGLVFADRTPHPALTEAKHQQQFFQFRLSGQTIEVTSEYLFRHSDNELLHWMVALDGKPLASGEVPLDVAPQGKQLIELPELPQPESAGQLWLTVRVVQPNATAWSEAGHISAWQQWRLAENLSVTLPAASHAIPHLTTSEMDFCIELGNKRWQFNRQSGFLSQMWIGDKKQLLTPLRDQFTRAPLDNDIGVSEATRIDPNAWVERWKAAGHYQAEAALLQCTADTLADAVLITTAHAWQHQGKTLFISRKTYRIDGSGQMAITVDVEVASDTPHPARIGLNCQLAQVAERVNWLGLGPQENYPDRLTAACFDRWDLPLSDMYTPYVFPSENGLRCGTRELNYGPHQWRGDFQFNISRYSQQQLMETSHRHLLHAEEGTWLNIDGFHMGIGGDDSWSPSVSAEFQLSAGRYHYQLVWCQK

SMILES	Ki [µM]
CC(C)S[C@@H]1O[C@H](CO)[C@H](O)[C@H](O)[C@H]1O [IPTG]	76
O=C(NCCOCCOCCOCCNC(=O)c1ccc(C(=O)OCCS[C@@H]2O[C@H](CO)[C@H](O)[C@H](O)[C@H]2O)c(C(c2ccccc2)c2ccccc2)c1)c1ccc(C(=O)c2ccccc2)cc1 [β-gal inhibitor, 13]	3
O=C(NCCOCCOCCOCCNC(=O)c1ccc(C(=O)OCCOCCS[C@@H]2O[C@H](CO)[C@H](O)[C@H](O)[C@H]2O)c(C(c2ccccc2)c2ccccc2)c1)c1ccc(C(=O)c2ccccc2)cc1 [β-gal inhibitor, 14]	3.9
O=C(NCCOCCOCCOCCNC(=O)c1ccc(C(=O)OCCOCCOCCOCCS[C@@H]2O[C@H](CO)[C@H](O)[C@H](O)[C@H]2O)c(C(c2ccccc2)c2ccccc2)c1)c1ccc(C(=O)c2ccccc2)cc1 [β-gal inhibitor, 15]	5.9
